A short description of data set [1]: Solubility in DMSO (stock solutions). Type of data set: physicochemical. The settings on record: in comparison to the other compounds / earlier aliquot. On the procedure:
Therefore, a 25 mM stock solutions for all the compounds except for C3 and C4 were prepared. The stock solutions for C3 and C4 were prepared at 5 mM and 7.5 mM, respectively. C1 is the parent compound—cromolyn disodium.

The subject of data set [2] is naïve BV2 microglial cells. The experiment in a line: Aβ42 uptake ELISA, 3 h cromolyn derivative treatment, naïve BV2. Type of data set: cell-based. The settings on record: 3 hours + 2 hours. On the procedure: (§1) To investigate the effect of cromolyn derivatives on Aβ42 uptake in microglia, naïve BV2 or BV2-CD33^WT cells were plated in proliferating media. On the following day, cells were treated with DMSO (control) or the compounds at different concentrations in proliferating media for 3 hours. […] Afterwards, cells were washed with PBS and treated with DMSO or compounds in the presence of the untagged Aβ42 peptide (400 nM) in DMEM media for 2 hours. Compound toxicity was assessed in the media collected at the end of the treatment with CytoTox-ONE™ lactate dehydrogenase (LDH) assay. The remaining cells in the plate were washed with cold PBS and lysed with RIPA buffer supplemented with protease and phosphatase inhibitors. Protein concentrations in the lysate supernatants were determined using the Pierce™ BCA protein assay kit and 2-3 μg/well of total protein from each lysate was analyzed for Aβ42 uptake using the Aβ42 ELISA kit from Wako. Toxic compound concentrations were excluded from further studies.
To test whether cromolyn derivatives modulate Aβ42 uptake, naïve BV2 microglial cells were treated with DMSO (control) or cromolyn derivative compounds at different concentrations for 3 hours. Afterwards, the cells were washed and treated with DMSO or compounds in the presence of untagged Aβ42 peptide for 2 hours. At the end of the treatment, the cell lysates were collected. […]
(In general: An ELISA detects its analyte on a solid surface through an enzyme-linked reagent.)

Another data set relates to BV2-CD33^WT cells. The data set can be described thus: Aβ42 uptake ELISA, 3 h cromolyn derivative treatment, BV2-CD33^WT. Type of data set: cell-based. On the procedure: as §1
Further, whether cromolyn derivatives impact Aβ42 uptake and clearance in BV2-CD33^WT cells was determined by two independent sets of experiments. BV2-CD33^WT cells were treated with DMSO (control) or cromolyn derivatives at different concentrations ranging between 5 and 150 μM.
The compound C2 was tested with other cromolyn derivatives in the second set of experiments.

Data set [3] deals with naïve BV2 microglial cells. The data set can be described thus: CytoTox-ONE lactate dehydrogenase (LDH) toxicity assay. The settings on record: 3 hours + 2 hours with Aβ42. Format: cell-based. As for the experimental part: On the following day, cells were treated with DMSO (control) or the compounds at different concentrations in proliferating media for 3 hours. […] Afterwards, cells were washed with PBS and treated with DMSO or compounds in the presence of the untagged Aβ42 peptide (400 nM) in DMEM media for 2 hours. Compound toxicity was assessed in the media collected at the end of the treatment with CytoTox-ONETM lactate dehydrogenase (LDH) assay. The remaining cells in the plate were washed with cold PBS and lysed with RIPA buffer supplemented with protease and phosphatase inhibitors. […] Toxic compound concentrations were excluded from further studies. To investigate whether cromolyn derivatives induce cytotoxicity at higher doses, naïve BV2 microglial cells were incubated with DMSO (vehicle) or cromolyn derivatives at different concentrations for 3 hours. The cells were then washed and incubated with DMSO or compounds and soluble untagged Aβ42 for additional 2 hours. Afterwards, the cell media was collected and measured LDH released by the damaged cells to identify the compounds that induce cytolysis.

In a further data set the test system is BV2 microglial cells. The data set can be described thus: Aβ42 uptake in BV2 microglial cell cultures, cromolyn and/or ibuprofen (ELISA). Type of data set: cell-based. The settings on record: 10 μM, 100 μM, 1 mM; 16 hours, then 3 hours with soluble Aβ42. On the procedure:
BV2 microglial cell cultures were treated with cromolyn and/or ibuprofen (10 μM, 100 μM, 1 mM) for 16 hours. Afterwards, cells were incubated with soluble Aβ42 and the compounds for 3 hours. After incubation, cells were collected for ELISA analysis. […] Results were derived from three independent experiments; **p<0.01, ***p<0.001, one-way ANOVA, Tukey's test). Data are represented as mean±SEM.

Entries after “also recorded” stand apart in the source; their conditions may differ.

In the case of `O=C(O)c1cc(=O)c2c(OCC(O)COc3cccc4oc(C(=O)O)cc(=O)c34)cccc2o1` [C1, Cromolyn Disodium, reference compound], in data set [1], the “solubility in DMSO” value is listed as “lower solubility in DMSO”.
Regarding `CCOC(=O)c1cc(=O)c2c(OCC(O)COc3cccc4oc(C(=O)OCC)cc(=O)c34)cccc2o1` [C3], in data set [1], the “solubility in DMSO” value is “lower solubility in DMSO”.
For orientation: IC50 means the concentration that gives 50% inhibition. As to `CCOC(=O)c1cc(=O)c2c(OCC(F)COc3cccc4oc(C(=O)OCC)cc(=O)c34)cccc2o1` [C4], the “solubility in DMSO” value in data set [1] is reported as “lower solubility in DMSO”. Besides, the Aβ42 uptake result is reported as “increased uptake of Aβ42 peptide; also recorded: significantly increased Aβ42 uptake levels” in data set [2] (75 μM, vs vehicle); “dose-dependent effect” in the data set with BV2-CD33^WT cells (50 μM, first set of experiments); “most effective in increasing the Aβ42 uptake” in the data set with BV2-CD33^WT cells (75 μM, second set of experiments); “effectively induced Aβ42 uptake” in the data set on BV2-CD33^WT cells (50 and 75 μM, second set of experiments, vs DMSO); “dose-dependent effect at lower concentrations” with BV2-CD33^WT cells (lower concentrations, second set of experiments, vs DMSO). For the same compound, the “Aβ42 uptake in comparison to DMSO” value with BV2-CD33^WT cells (75 μM, first set of experiments) is “two-fold increase; also recorded: increased uptake of Aβ42”. In the data set on BV2-CD33^WT cells (GraphPad Prism 7, first set of experiments), this compound returned an IC50 of 54.7 µM. The “CD33-mediated inhibition of Aβ uptake and clearance” value in the data set with BV2-CD33^WT cells (both sets of experiments) was “reversed the CD33-mediated inhibition of Aβ uptake and clearance”.
With `O=c1cc(CO)oc2cccc(OCC(F)COc3cccc4oc(CO)cc(=O)c34)c12` [C6], the Aβ42 uptake result in data set [2] (different concentrations) is listed as “robust inhibition of Aβ42 uptake”; with BV2-CD33^WT cells (different concentrations, first set of experiments, vs DMSO), “dose-dependent effect in mediating inhibition of Aβ42 uptake”.
As for `CC(C)(C)C(=O)OCOC(=O)c1cc(=O)c2c(OCC(O)COc3cccc4oc(C(=O)OCOC(=O)C(C)(C)C)cc(=O)c34)cccc2o1` [C8], in data set [3] (100 and 150 μM, vs DMSO), the “toxicity (LDH released)” value is “showing toxicity; also recorded: increased toxicity”. In data set [3], the “concentration at which toxicity is displayed in LDH assay” value was no less than 100 µM.
For the compound `CC(C)Cc1ccc(C(C)C(=O)O)cc1` (stereo not shown) [ibuprofen], the “microglial Aβ42 uptake” value with BV2 microglial cells was “not ibuprofen promotes microglial Aβ42 uptake”.

(Values after patent US11679095B2, “Macrophages/microglia in neuro-inflammation associated with neurodegenerative diseases” (The General Hospital Corporation, priority 2016, dated 2023).)
